Some test systems named below: SK-MEL-28 melanoma; K-562 leukemia; LOX IMVI melanoma; OVCAR-4 ovarian; OVCAR-5 ovarian; HL-60(TB) leukemia; UACC-62 melanoma; MDA-MB-231 breast; SNB-75 CNS; HCC-2998 colon.
Holding throughout (assay): DTP human tumour cell line panel, 48 h

TGI and GI50 data for 15 compounds are collected here from PubChem BioAssay (NCI).

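Where inhibition never reached the appropriate level, the endpoint shown equals the highest concentration tested. Otherwise, values were interpolated linearly from a five-concentration, 48-hour dose response in 96-well plates. GI50 marks 50% less growth. TGI marks complete inhibition of growth.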

In general, TGI refers to the concentration giving total growth inhibition. A low value points to greater sensitivity of the cells. Regarding `Cn1c([O-])nc(-n2cc[n+](C)c2)cc1=O`, the TGI with SK-MEL-28 melanoma, in the assay with K-562 leukemia, in the assay with LOX IMVI melanoma, in the assay on OVCAR-4 ovarian, in the assay with OVCAR-5 ovarian and with HL-60(TB) leukemia was above 100 µM in each case. The TGI in the assay on UACC-62 melanoma and in the assay with MDA-MB-231 breast was above 100 µM each time.
For the compound `CCNC(=O)C1CCCN1C(=O)C(CCCN=C(N)N)NC(=O)C(CC(C)C)NC(=O)C(Cc1c[nH]c2ccccc12)NC(=O)C(Cc1ccc(O)cc1)NC(=O)C(CO)NC(=O)C(Cc1c[nH]c2ccccc12)NC(=O)C(Cc1cnc[nH]1)NC(=O)C1CCC(=O)N1` (configuration not stated), the TGI in the assay on K-562 leukemia, with OVCAR-4 ovarian, with SNB-75 CNS, with OVCAR-5 ovarian, in the assay with HCC-2998 colon and in the assay with UACC-62 melanoma was above 100 µM throughout. Further, in the assay with MDA-MB-231 breast, the TGI is above 100 µM.
For `Clc1ccc(OCc2nnc(CCCCCCCCc3nnc(COc4ccc(Cl)cc4)n3Nc3ccccc3)n2Nc2ccccc2)cc1`, the TGI is above 100 µM in the assay with SK-MEL-28 melanoma; above 100 µM in the assay with K-562 leukemia; 42.6 µM in the assay with LOX IMVI melanoma; above 100 µM in the assay with OVCAR-4 ovarian; above 100 µM in the assay on SNB-75 CNS; above 100 µM with OVCAR-5 ovarian. Besides, the figures for the TGI in the assay on HCC-2998 colon, with UACC-62 melanoma and in the assay with MDA-MB-231 breast were above 68.7 µM, 38.8 µM and above 100 µM, respectively.
As to `CC1(C)OCC2OC3([C@H]4OC(C)(C)O[C@@H]4CO)OC(C)(C)OC3C2O1` (some centres not stated), the TGI in the assay with SK-MEL-28 melanoma, in the assay on K-562 leukemia, with LOX IMVI melanoma, with OVCAR-4 ovarian, in the assay with SNB-75 CNS and in the assay with OVCAR-5 ovarian was above 100 µM in each case. For the same compound, the TGI in the assay with HCC-2998 colon, in the assay on UACC-62 melanoma and in the assay with MDA-MB-231 breast was above 100 µM each time.
Take `Cc1cc2ncc3c(=O)n(NS(=O)(=O)c4ccc(N)cc4)ccc3n2n1`: the TGI in the assay on SK-MEL-28 melanoma, in the assay on LOX IMVI melanoma, in the assay with OVCAR-4 ovarian, in the assay on SNB-75 CNS, with OVCAR-5 ovarian and in the assay on HL-60(TB) leukemia was above 100 µM each time. In addition, the TGI in the assay with UACC-62 melanoma and with MDA-MB-231 breast was above 100 µM each time.
In the case of `OC1(c2ccc(Cl)cc2)c2ccc3ccccc3c2C2=N[C@H]3CCCC[C@@H]3N21` (some centres not stated), the TGI with SK-MEL-28 melanoma is above 100 µM; in the assay on K-562 leukemia it was above 100 µM; with LOX IMVI melanoma it was 10.5 µM; with OVCAR-4 ovarian it was above 100 µM; in the assay with OVCAR-5 ovarian it was 57.2 µM; with HL-60(TB) leukemia, above 100 µM. Also, the TGI is 41.4 µM in the assay on UACC-62 melanoma and above 100 µM in the assay with MDA-MB-231 breast.
For `O=C(Cc1ccc([N+](=O)[O-])cc1)OCC#CCOC(=O)Cc1ccc([N+](=O)[O-])cc1`, the TGI with K-562 leukemia, in the assay with LOX IMVI melanoma, in the assay with OVCAR-4 ovarian, in the assay on SNB-75 CNS, in the assay with OVCAR-5 ovarian and in the assay on HL-60(TB) leukemia was above 10 µM each time. Also, the TGI with UACC-62 melanoma and with MDA-MB-231 breast was above 10 µM each time.
Take `CN(C)CCn1c(=O)c2ccc(NCCCN(C)CCCNc3ccc4c(=O)n(CCN(C)C)c(=O)n5c6ccc([N+](=O)[O-])cc6c(=O)c3c45)c3c(=O)c4cc([N+](=O)[O-])ccc4n(c1=O)c23`: the TGI in the assay on SK-MEL-28 melanoma is 0.553 µM; with OVCAR-4 ovarian, 0.0944 µM; in the assay on SNB-75 CNS, 0.195 µM; in the assay on OVCAR-5 ovarian, 1.1 µM; in the assay on HCC-2998 colon, 0.0921 µM; in the assay on HL-60(TB) leukemia it was 1.56 µM. Besides, the figures for the TGI in the assay on UACC-62 melanoma and with MDA-MB-231 breast were 0.318 µM and 0.125 µM, respectively.
Take `NC1CNC(=O)c2c(Cl)sc(Cl)c21` (configuration not stated): the TGI in the assay with SK-MEL-28 melanoma, in the assay with K-562 leukemia, in the assay on LOX IMVI melanoma, with OVCAR-4 ovarian, in the assay with SNB-75 CNS and in the assay on OVCAR-5 ovarian was above 100 µM each time. Besides, the TGI in the assay with HCC-2998 colon, with UACC-62 melanoma and with MDA-MB-231 breast was above 100 µM throughout.
Consider `CC1CC(=O)Nc2nc3ccccc3n21` (configuration not stated), for which the TGI with K-562 leukemia, in the assay on LOX IMVI melanoma, in the assay with OVCAR-4 ovarian, with OVCAR-5 ovarian, in the assay on HL-60(TB) leukemia and in the assay on UACC-62 melanoma was above 100 µM in each case. The TGI in the assay with MDA-MB-231 breast is above 100 µM.
For orientation: GI50 means the concentration that inhibits growth by half. Consider `Nc1ccc2[nH]c(-c3cccc(Cl)c3)cc(=O)c2c1`, for which the TGI with SK-MEL-28 melanoma is above 100 µM; in the assay on OVCAR-4 ovarian, above 100 µM; in the assay on SNB-75 CNS, above 100 µM; with OVCAR-5 ovarian, above 100 µM; in the assay with HCC-2998 colon it was 54.4 µM; in the assay on UACC-62 melanoma, above 100 µM. Further, the TGI with MDA-MB-231 breast was above 100 µM. For the same compound, the GI50 with OVCAR-4 ovarian is above 100 µM.
Take `O=C(Cc1ccccc1)NN1C(=O)/C(=C\c2ccc([N+](=O)[O-])cc2)SC1=Nc1ccccc1`: the TGI in the assay with SK-MEL-28 melanoma, in the assay on K-562 leukemia, in the assay with OVCAR-4 ovarian, with SNB-75 CNS, with OVCAR-5 ovarian and with HCC-2998 colon was above 100 µM in each case. The TGI in the assay with UACC-62 melanoma and in the assay on MDA-MB-231 breast was above 100 µM in each case.
In the case of `COC(=O)Cc1c([C@H]2[C@H](CC(=O)OC)c3ccccc3N2C(C)=O)[nH]c2ccccc12`, the TGI in the assay with SK-MEL-28 melanoma, with K-562 leukemia, with LOX IMVI melanoma, with SNB-75 CNS, in the assay with OVCAR-5 ovarian and in the assay on HL-60(TB) leukemia was above 100 µM in each case. For the same compound, the TGI in the assay on UACC-62 melanoma and with MDA-MB-231 breast was above 100 µM each time.
`O=c1c(-c2ccc(Cl)cc2)nnc2n(Cc3ccccc3)c3ccccc3n12`: the TGI with SK-MEL-28 melanoma is above 100 µM; with LOX IMVI melanoma, above 100 µM; in the assay with OVCAR-4 ovarian it was 30.7 µM; in the assay on SNB-75 CNS, 44.9 µM; in the assay on OVCAR-5 ovarian, above 100 µM; in the assay with HCC-2998 colon it was above 100 µM. Further, the results for the TGI with HL-60(TB) leukemia and in the assay on MDA-MB-231 breast were above 100 µM and 67.8 µM, respectively.
Consider `COC(=O)C1CC2(c3ccccc3)C(=O)c3ccccc3N2O1` (configuration not stated), for which the TGI in the assay on SK-MEL-28 melanoma was above 100 µM; in the assay on K-562 leukemia, above 100 µM; in the assay on LOX IMVI melanoma it was 81.7 µM; with OVCAR-4 ovarian, above 100 µM; in the assay on SNB-75 CNS, above 100 µM; in the assay with OVCAR-5 ovarian it was above 100 µM. Also, the total growth inhibition concentration (TGI) was above 100 µM with HCC-2998 colon, 82.1 µM in the assay with HL-60(TB) leukemia and above 100 µM with UACC-62 melanoma.
